{"source": "paper PMC8406801", "about": "“Naringenin Inhibits Platelet Activation and Arterial Thrombosis Through Inhibition of Phosphoinositide 3-Kinase and Cyclic Nucleotide Signaling” (Frontiers in Pharmacology, 2021)", "key": {"[1]": {"tested_on": "integrin αIIbβ3 inside-out signaling (fibrinogen binding) in washed platelets", "assay": "ADP-stimulated fibrinogen binding (flow cytometry)", "assay_type": "cell-based, rat", "settings": "ADP 10 μM; for Fibrinogen binding (%): single replicates; for fibrinogen binding: mean ± SD, n = 3, 55.67 ± 9.62% with ADP alone", "procedure": "Flow cytometric assays were performed as described previously ([Wang et al., 2019]). ADP-stimulated P-selectin exposure and fibrinogen binding were determined in washed platelets. […] The platelets were immediately incubated with PE-labeled CD62P or FITC-labeled fibrinogen in the dark at room temperature for 15 min. The cells were finally fixed with 1% (v/v) paraformaldehyde prior to analysis using an Accuri C6 flow cytometer (BD Biosciences, United States)."}, "[2]": {"tested_on": "PRP (platelet-rich plasma)", "assay": "ADP (10 μmol/L)-induced aggregation of PRP in vitro", "assay_type": "cell-based, rat", "settings": "for Aggregation (%): raw data", "procedure": "Washed rat platelets were prepared as described previously ([Gao et al., 2011]) with a minor modification. Briefly, rat blood was drawn from the abdominal aorta into the siliconized vacutainers containing 1:9 (v/v) 3.8% sodium citrate, supplemented with 100 ng/ml prostaglandin E1 (PGE1) and centrifuged at 300 × g for 6 min at room temperature. Platelet-rich plasma (PRP) was obtained, and after the addition of 100 ng/ml PGE1, platelets were pelleted at 900 × g for 10 min. Platelets were washed once in Tyrode’s buffer (12 mM NaHCO3, 138 mM NaCl, 5.5 mM glucose, 2.9 mM KCl, 2 mM MgCl2, 0.42 mM NaH2PO4, 10 mM HEPES, pH 7.4) containing 100 ng/ml PGE1, and finally resuspended in Tyrode’s buffer containing 0.02 U/mL apyrase to a final concentration of 4×10^8 cells/mL. Washed platelets were preincubated with vehicle (0.4% dimethyl sulfoxide) or various concentrations of naringenin in the presence of 2 mM CaCl2 for 5 min at 37°C, and then further stimulated by ADP (10 μM), thrombin (0.2 U/mL) or collagen (2 μg/ml). The maximum platelet aggregation rate was detected within 5 min with continuous stirring.\nPlatelet aggregation was induced by ADP using washed platelets and PRP. Washed platelets were preincubated with vehicle (containing 0.4% DMSO) or different doses (100, 200, 400, and 800 μM) of naringenin or naringin for 5 min before activation with ADP (10 μM) for 5 min. […] For example, naringenin, at doses of 100 and 800 μM, decreased ADP-induced platelet aggregation to 54.5 ± 6.2% and 6.3 ± 1.7%, respectively (n = 6; p < 0.001, control group platelet aggregation was taken as 100%) (Figure 1F). […] Because dietary flavonoids have been reported to bind plasma proteins and cause the lowering of inhibitory potency in PRP ([Wright et al., 2013]), the ability of naringenin and naringin on platelet function in PRP was investigated to compare their effects with washed platelets.\nFIGURE 1 Effects of naringenin and naringin on platelet aggregation. Chemical structure of naringin (A) and naringenin (B). The effects of naringin (C) or naringenin (D) on PRP were measured following stimulation with 10 μmol/L ADP. Rat washed platelet aggregation performed with or without different concentrations of naringin (E) or naringenin (F) was recorded after stimulation with 10 μmol/L ADP. Similarly, Washed platelet aggregation performed with vehicle or various concentrations of naringenin was recorded after stimulation with 0.2 U/mL thrombin (G) or 2 μg/ml collagen (H). WP represents washed platelets. Data are expressed as means ± SD (n = 6), the level of aggregation obtained at 5 min with vehicle-treated samples (0 μM) was taken as 100%. *p < 0.05, **p < 0.01, ***p < 0.001 compared with the vehicle control group."}, "[3]": {"tested_on": "washed platelets on fibrinogen-coated coverslips", "assay": "Platelet spreading on fibrinogen", "assay_type": "cell-based, rat", "settings": "for surface coverage, platelet spreading on fibrinogen: mean ± SD, n = 3, vehicle 30.37 ± 3.31%; for Area (%) of platelets spread on fibrinogen: single replicates", "procedure": "Washed platelets were incubated with vehicle or various concentrations of naringenin at 37°C for 10 min in the presence of 2 mM CaCl2 and allowed to spread on fibrinogen-coated coverslips for 45 min at 37°C ([Liu et al., 2016]). After washed three times with phosphate-buffered saline (PBS), adherent platelets were fixed with 4% paraformaldehyde, permeabilized with 0.1% Triton X-100 and stained with TRITC-conjugated phalloidin (1 μg/ml) in the dark at room temperature for 60 min. Adherent platelets were observed under an inverted fluorescence microscope (Nikon TE-2000S) and processed using Image J software."}, "[4]": {"tested_on": "carotid arterial thrombus", "assay": "FeCl3-induced carotid arterial thrombus model in rats", "assay_type": "in vivo, rat", "settings": "for Occlusion time: 10% FeCl3, single animals, no occlusion within 20 min recorded as 20 min", "procedure": "To determine the effects of naringenin on thrombogenesis, a FeCl3-induced carotid arterial thrombus model was performed as reported previously with some modifications ([Eckly et al., 2011]). […] The rats were anaesthetized using 1% pentobarbital sodium salt and fixed supinely after the last administration. The left carotid artery was exposed and thrombosis was induced by applying a Whatman filter paper (5 mm × 1 mm) saturated with 10% (w/v) FeCl3 on the top of the left carotid artery for 5 min. […] Time to occlusion of the carotid artery was defined as a blood flow of 0 ml/min for 3 min. […] At the end of the experiment, the left carotid artery was dissected. A haematoxylin and eosin stain was performed on the artery."}, "PRP": {"tested_on": "PRP", "assay": "Clot retraction", "assay_type": "cell-based, rat", "settings": "PRP, 200, 400, and 800 μM, thrombin 1 U/mL, 15 min", "procedure": "PRP was incubated with vehicle or different concentrations of naringenin for 10 min at 37°C. Clot retraction was initiated by adding fibrinogen (400 μg/ml) and thrombin (1 U/mL), and allowed to proceed at 37°C. Images were taken 15 min later."}}, "note": "“And” between values parts separate entries of the source, which are not always exact repeats. Equal values may be shown once."}
{"smiles": "O=C1C[C@@H](c2ccc(O)cc2)Oc2cc(O)cc(O)c21", "note": "[Naringenin]", "values": [{"measurement": "Fibrinogen binding (%)", "setting": "[1]; 200 μM", "value": "42.78% and 35.40% and 54.20%"}, {"measurement": "fibrinogen binding", "setting": "[1]; 400 μM", "value": "31.74 ± 5.85", "unit": "%"}, {"measurement": "Fibrinogen binding (%)", "setting": "[1]; 400 μM", "value": "31.71% and 25.90% and 37.60%"}, {"measurement": "fibrinogen binding", "setting": "[1]; 800 μM", "value": "20.48 ± 4.63", "unit": "%"}, {"measurement": "Fibrinogen binding (%)", "setting": "[1]; 800 μM", "value": "21.04% and 15.60% and 24.80%"}, {"measurement": "decrease of aggregation in PRP", "setting": "[2]; ADP-induced, 100 μM", "value": 18, "unit": "%"}, {"measurement": "Aggregation (%)", "setting": "[2]; PRP, ADP 10 μmol/L, compound 100 μM, single replicates", "value": "44.9% and 44.8% and 49.7% and 47.9% and 48.3%"}, {"measurement": "Aggregation % of control", "setting": "[2]; PRP, ADP 10 μmol/L, compound 100 μM, single replicates, 100 µM", "value": "78.3 % of control and 86.8 % of control and 83.7 % of control and 79.5 % of control and 84.4 % of control"}, {"measurement": "Aggregation (%)", "setting": "[2]; PRP, ADP 10 μmol/L, compound 200 μM, single replicates", "value": "42.5% and 44.3% and 48.9% and 47.2% and 39.7%"}, {"measurement": "Aggregation % of control", "setting": "[2]; PRP, ADP 10 μmol/L, compound 200 μM, single replicates, 200 µM", "value": "77.4 % of control and 85.4 % of control and 82.4 % of control and 69.3 % of control and 74.1 % of control"}, {"measurement": "Aggregation (%)", "setting": "[2]; PRP, ADP 10 μmol/L, compound 400 μM, single replicates", "value": "39.7% and 31.6% and 37.9% and 34.1% and 44.8%"}, {"measurement": "Aggregation % of control", "setting": "[2]; PRP, ADP 10 μmol/L, compound 400 μM, single replicates, 400 µM", "value": "66.9 % of control and 69.3 % of control and 55.2 % of control and 66.2 % of control and 59.6 % of control and 78.3 % of control"}, {"measurement": "Aggregation (%)", "setting": "[2]; PRP, ADP 10 μmol/L, compound 800 μM, single replicates", "value": "30.9% and 33.6% and 36.0% and 28.9% and 28.6% and 38.4%"}, {"measurement": "Aggregation % of control", "setting": "[2]; PRP, ADP 10 μmol/L, compound 800 μM, single replicates, 800 µM", "value": "58.7 % of control and 62.9 % of control and 50.5 % of control and 50.0 % of control and 67.1 % of control"}, {"measurement": "activity at 100 µM", "setting": "[2]; Rattus norvegicus, PRP, ADP 10 μmol/L, compound 100 μM, single replicates, read-out: Aggregation % of control", "value": 78.4, "unit": "%"}, {"measurement": "activity at 200 µM", "setting": "[2]; Rattus norvegicus, PRP, ADP 10 μmol/L, compound 200 μM, single replicates, read-out: Aggregation % of control", "value": 74.2, "unit": "%"}, {"measurement": "activity at 800 µM", "setting": "[2]; Rattus norvegicus, PRP, ADP 10 μmol/L, compound 800 μM, single replicates, read-out: Aggregation % of control", "value": 54, "unit": "%"}, {"measurement": "surface coverage, platelet spreading on fibrinogen", "setting": "[3]; 100 μM", "value": "20.96 ± 5.08", "unit": "%"}, {"measurement": "Area (%) of platelets spread on fibrinogen", "setting": "[3]; 100 μM", "value": "25.76% and 15.64% and 21.47%"}, {"measurement": "surface coverage, platelet spreading on fibrinogen", "setting": "[3]; 200 μM", "value": "15.29 ± 1.87", "unit": "%"}, {"measurement": "Area (%) of platelets spread on fibrinogen", "setting": "[3]; 200 μM", "value": "16.88% and 15.75% and 13.23%"}, {"measurement": "surface coverage, platelet spreading on fibrinogen", "setting": "[3]; 400 μM", "value": "10.56 ± 0.79", "unit": "%"}, {"measurement": "Area (%) of platelets spread on fibrinogen", "setting": "[3]; 400 μM", "value": "9.69% and 11.23% and 10.75%"}, {"measurement": "surface coverage, platelet spreading on fibrinogen", "setting": "[3]; 800 μM", "value": "6.98 ± 2.74", "unit": "%"}, {"measurement": "Area (%) of platelets spread on fibrinogen", "setting": "[3]; 800 μM", "value": "4.62% and 6.33% and 9.98%"}, {"measurement": "H&E-stained carotid artery: thrombus formation and vascular endothelial injury", "setting": "[4]; naringenin pretreatment, 10% FeCl3", "value": "diminish thrombus formation and protect against vascular endothelial injury"}, {"measurement": "Occlusion time", "setting": "[4]; oral 200 mg/kg for 7 days, 200 mg/kg", "value": "7.5 min and 11.3 min and 8.5 min and 8.0 min and 9.5 min and 10.3 min"}, {"measurement": "Occlusion time", "setting": "[4]; oral 400 mg/kg for 7 days, 400 mg/kg", "value": "11.0 min and 10.5 min and 13.0 min and 14.0 min and 15.0 min"}, {"measurement": "10% FeCl3-thrombus formation (time to vessel occlusion)", "setting": "[4]; oral 800 mg/kg for 7 days", "value": "markedly attenuated"}, {"measurement": "Occlusion time", "setting": "[4]; oral 800 mg/kg for 7 days, 800 mg/kg", "value": "13.3 min and 15.3 min and 20.0 min and 18.0 min"}, {"measurement": "10% FeCl3-thrombus formation (time to vessel occlusion)", "setting": "[4]; oral 200 and 400 mg/kg for 7 days", "value": "less inhibition"}, {"measurement": "clot retraction", "setting": "PRP", "value": "significantly reduced"}]}
